Key:
Assay type in all cases: cell-based
[1] = system: beneficial oral bacteria and pathogenic oral bacteria; assay: Twenty-four hour biofilm growth, conclusion over the panel; details: threshold 1.6
Text: Substrates that were able to increase the biofilm mass of at least one of the above beneficial bacteria while not or only minimally increasing the biofilm mass of the pathogenic bacteria are considered to be prebiotic compounds. The increase in biofilm formation of the tested bacteria in response to selected glycosides (β-methyl-D-galactoside and α-methyl-D-galactoside) was investigated by setting up biofilm growth assays in a nutritionally rich medium (brain heart infusion broth (BHI), Oxoid), over 24 hours. Late exponential growth phase liquid cultures were prepared by transferring the respective bacterium from blood agar plates to BHI and overnight incubation at 37° C. in an anaerobic atmosphere for A. viscosus, V. parvula, P. gingivalis, P. intermedia, T. forsythia, A. naeslundii, and C. sputigena, and in a 5% CO2 environment for S. salivarius, S. sanguinis, S. mitis, A. actinomycetemcomitans, S. mutans, and S. gordonii. […] Quantification of the stained biofilm was performed by measuring the absorbance at 630 nm using a Multiskan Ascent microplate reader (Thermo Scientific). […] For each day and for each combination, the average (mean) of the values obtained (as detailed above) for the four technical replicas was calculated to provide a single value for each combination on each day. […]

Porphyromonas gingivalis = assay: Twenty-four hour optical density growth in BHI; details: over 24 hours, control = 1
Protocol: (§1) The extent of growth of the tested bacteria in response to selected glycosides (β-methyl-D-galactoside and α-methyl-D-galactoside) was investigated by setting up growth curves in a nutritionally rich medium (brain heart infusion broth (BHI), Oxoid), over 24 hours. Late exponential growth phase liquid cultures were prepared by transferring the respective bacterium from blood agar plates to BHI and overnight incubation at 37° C. in an anaerobic atmosphere for A. viscosus, V. parvula, F. nucleatum, P. gingivalis, P. intermedia, T. forsythia, A. naeslundii, and C. sputigena, and in a 5% CO2 environment for S. salivarius, S. sanguinis, S. mitis, A. actinomycetemcomitans, S. mutans, S. sobrinus and S. gordonii. Overnight cultures were transferred to BHI and adjusted to a concentration of 1×10^7 CFU/ml (colony forming units per ml) by measuring the optical density at 600 nm (OD600) (BioRad SmartSpec 3000). For each strain, 200 μl of the bacterial suspension was added to a 96-well plate containing 20 μl of the respective glycosides. Final concentrations of the glycosides were set to 5, 10, 20 and 25 μmol/ml. […] Plates were incubated as previously described. For each combination of bacterium/glycoside, and for each of their respective controls (i.e. the particular bacterium in the nutritionally rich medium with no glycoside), the optical density was measured at 630 nm (OD630) at 0 h and 24 h (Thermo Scientific Multiskan Ascent). Additionally, the OD630 for combinations of bacterium/glycosides grown in a 5% CO2 environment were also measured every hour between 0 h and 9 h. […] The experiment was carried out on three different days (thus providing 3 biological replicas) and on each day the experiment was carried out in quadruple (thus providing 4 technical replicas) for each combination of bacterium with glycoside and for each control. For each day and for each combination, the average (mean) of the values obtained (as detailed above) for the four technical replicas was calculated to provide a single value for each combination on each day. The values shown in Tables 5 to 6, below, are the average (mean) of the three single values obtained for each combination of bacterium with glycoside (α-Methyl-D-Galactoside=α-MDG; β-Methyl-D-Galactoside=β-MDG).

Streptococcus mitis = assay: Twenty-four hour optical density growth in BHI; details: over 24 hours, control = 1
Protocol: as §1

Veillonella parvula = assay: Twenty-four hour optical density growth in BHI; details: over 24 hours, control = 1
Protocol: as §1

Actinomyces viscosus = assay: Twenty-four hour optical density growth in BHI; details: over 24 hours, control = 1
Protocol: as §1

Tannerella forsythia = assay: Twenty-four hour optical density growth in BHI; details: over 24 hours, control = 1
Protocol: as §1

Streptococcus sanguinis = assay: Twenty-four hour optical density growth in BHI; details: over 24 hours, control = 1
Protocol: as §1

Streptococcus mutans = assay: Twenty-four hour optical density growth in BHI; details: over 24 hours, control = 1
Protocol: as §1

Streptococcus salivarius = assay: Twenty-four hour optical density growth in BHI; details: over 24 hours, control = 1
Protocol: as §1

Prevotella intermedia = assay: Twenty-four hour optical density growth in BHI; details: over 24 hours, control = 1
Protocol: as §1

Row | Compound | maximal OD630 divided by control (extent of growth) (Porphyromonas gingivalis; 5 μmol/ml) | maximal OD630 divided by control (extent of growth) (Porphyromonas gingivalis; 10 μmol/ml) | maximal OD630 divided by control (extent of growth) (Porphyromonas gingivalis; 20 μmol/ml) | maximal OD630 divided by control (extent of growth) (Porphyromonas gingivalis; 25 μmol/ml) | maximal OD630 divided by control (extent of growth) (Streptococcus mitis; 5 μmol/ml) | maximal OD630 divided by control (extent of growth) (Streptococcus mitis; 10 μmol/ml) | maximal OD630 divided by control (extent of growth) (Streptococcus mitis; 20 μmol/ml) | maximal OD630 divided by control (extent of growth) (Streptococcus mitis; 25 μmol/ml) | maximal OD630 divided by control (extent of growth) (Veillonella parvula; 5 μmol/ml) | maximal OD630 divided by control (extent of growth) (Veillonella parvula; 10 μmol/ml) | maximal OD630 divided by control (extent of growth) (Veillonella parvula; 20 μmol/ml) | maximal OD630 divided by control (extent of growth) (Veillonella parvula; 25 μmol/ml) | maximal OD630 divided by control (extent of growth) (Actinomyces viscosus; 5 μmol/ml) | maximal OD630 divided by control (extent of growth) (Actinomyces viscosus; 10 μmol/ml) | maximal OD630 divided by control (extent of growth) (Actinomyces viscosus; 20 μmol/ml) | maximal OD630 divided by control (extent of growth) (Actinomyces viscosus; 25 μmol/ml) | maximal OD630 divided by control (extent of growth) (Tannerella forsythia; 5 μmol/ml) | maximal OD630 divided by control (extent of growth) (Tannerella forsythia; 10 μmol/ml) | maximal OD630 divided by control (extent of growth) (Tannerella forsythia; 20 μmol/ml) | maximal OD630 divided by control (extent of growth) (Tannerella forsythia; 25 μmol/ml) | other results
1 | CO[C@H]1O[C@H](CO)[C@H](O)[C@H](O)[C@H]1O [α-methyl-D-galactoside] | 0.9298 | 0.9747 | 0.9132 | 0.9353 | 0.9303 | 0.9337 | 0.8843 | 0.8855 | 0.9160 | 0.9528 | 0.9141 | 0.9326 | 0.6181 | 0.5756 | 0.4433 | 0.4453 | 0.9724 | 0.9898 | 0.9846 | 1.0112 | prebiotic effect (biofilm growth), in words ([1]; at concentrations of 5, 10, and 20 μmol/ml): exhibited prebiotic effects; maximal OD630 divided by control (extent of growth) (Streptococcus sanguinis; 5 μmol/ml): 0.9521; maximal OD630 divided by control (extent of growth) (Streptococcus sanguinis; 10 μmol/ml): 0.9343; maximal OD630 divided by control (extent of growth) (Streptococcus sanguinis; 20 μmol/ml): 0.8872; maximal OD630 divided by control (extent of growth) (Streptococcus sanguinis; 25 μmol/ml): 0.9294; maximal OD630 divided by control (extent of growth) (Streptococcus mutans; 5 μmol/ml): 0.9703; maximal OD630 divided by control (extent of growth) (Streptococcus mutans; 10 μmol/ml): 0.9003; maximal OD630 divided by control (extent of growth) (Streptococcus mutans; 20 μmol/ml): 0.4212; maximal OD630 divided by control (extent of growth) (Streptococcus mutans; 25 μmol/ml): 0.2492; maximal OD630 divided by control (extent of growth) (Streptococcus salivarius; 5 μmol/ml): 0.8965; maximal OD630 divided by control (extent of growth) (Streptococcus salivarius; 10 μmol/ml): 0.8910; maximal OD630 divided by control (extent of growth) (Streptococcus salivarius; 20 μmol/ml): 0.8640; maximal OD630 divided by control (extent of growth) (Streptococcus salivarius; 25 μmol/ml): 0.8725; maximal OD630 divided by control (extent of growth) (Prevotella intermedia; 5 μmol/ml): 0.9203; maximal OD630 divided by control (extent of growth) (Prevotella intermedia; 10 μmol/ml): 0.9043; maximal OD630 divided by control (extent of growth) (Prevotella intermedia; 20 μmol/ml): 0.8637; maximal OD630 divided by control (extent of growth) (Prevotella intermedia; 25 μmol/ml): 0.8498
2 | CO[C@@H]1O[C@H](CO)[C@H](O)[C@H](O)[C@H]1O [β-methyl-D-galactoside] | 0.8852 | 0.9738 | 0.9498 | 0.9364 | 0.8435 | 0.8256 | 0.9114 | 0.8116 | 0.8912 | 0.9129 | 0.9145 | 0.9462 | 0.6467 | 0.6333 | 0.6745 | 0.6464 | 0.9652 | 0.9920 | 0.9847 | 1.0042 | prebiotic effect (biofilm growth), in words ([1]; at concentrations of 5, 10, 20 and 25 μmol/ml): exhibited prebiotic effects; maximal OD630 divided by control (extent of growth) (Streptococcus sanguinis; 5 μmol/ml): 0.8787; maximal OD630 divided by control (extent of growth) (Streptococcus sanguinis; 10 μmol/ml): 0.8540; maximal OD630 divided by control (extent of growth) (Streptococcus sanguinis; 20 μmol/ml): 0.8629; maximal OD630 divided by control (extent of growth) (Streptococcus sanguinis; 25 μmol/ml): 0.8842; maximal OD630 divided by control (extent of growth) (Streptococcus mutans; 5 μmol/ml): 0.9473; maximal OD630 divided by control (extent of growth) (Streptococcus mutans; 10 μmol/ml): 0.9083; maximal OD630 divided by control (extent of growth) (Streptococcus mutans; 20 μmol/ml): 0.7929; maximal OD630 divided by control (extent of growth) (Streptococcus mutans; 25 μmol/ml): 0.5618; maximal OD630 divided by control (extent of growth) (Streptococcus salivarius; 5 μmol/ml): 1.2275; maximal OD630 divided by control (extent of growth) (Streptococcus salivarius; 10 μmol/ml): 1.5208; maximal OD630 divided by control (extent of growth) (Streptococcus salivarius; 20 μmol/ml): 1.7353; maximal OD630 divided by control (extent of growth) (Streptococcus salivarius; 25 μmol/ml): 1.7445; maximal OD630 divided by control (extent of growth) (Prevotella intermedia; 5 μmol/ml): 0.9000; maximal OD630 divided by control (extent of growth) (Prevotella intermedia; 10 μmol/ml): 0.8909; maximal OD630 divided by control (extent of growth) (Prevotella intermedia; 20 μmol/ml): 0.9071; maximal OD630 divided by control (extent of growth) (Prevotella intermedia; 25 μmol/ml): 0.9102

From patent US10307357B2, “Prebiotic oral care compositions containing an alkyl glycoside” (COLGATE-PALMOLIVE COMPANY, priority 2013, dated 2019)
